Measurements reported in patent US20050192314A1, “Urea derivatives as C-kit modulators” (Ambit Biosciences Corporation, priority 2003, published 2005).

How the values were obtained:
KIT(JMminus) = molecular target: T1, KIT(JMminus) (Homo sapiens, UniProt P10721); assay: Binding constant (Kd) measurement, phage-displayed kinase competition binding assay: KIT(JMminus)
T1 construct: KIT(JMminus); made in house
Excerpt: (§1) The term “ND” represents non-determined values.

KIT(DKIN) = molecular target: T2, KIT(DKIN) (Homo sapiens, UniProt P10721); assay: Binding constant (Kd) measurement, phage-displayed kinase competition binding assay: KIT(DKIN)
T2 construct: KIT(DKIN); made in house
T2 sequence (P10721 589-937 limits assumed): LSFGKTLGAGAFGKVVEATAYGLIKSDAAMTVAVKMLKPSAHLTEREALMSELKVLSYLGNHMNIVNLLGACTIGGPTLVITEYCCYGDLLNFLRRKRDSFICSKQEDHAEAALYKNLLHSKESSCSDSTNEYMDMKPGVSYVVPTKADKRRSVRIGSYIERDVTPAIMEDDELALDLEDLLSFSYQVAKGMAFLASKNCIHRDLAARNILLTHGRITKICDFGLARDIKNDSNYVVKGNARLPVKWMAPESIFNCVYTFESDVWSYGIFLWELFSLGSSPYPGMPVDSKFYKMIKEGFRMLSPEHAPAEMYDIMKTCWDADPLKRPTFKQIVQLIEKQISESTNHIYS
Excerpt: as §1

T1 sequence (P10721 589-937 limits assumed): as above

| Kd (KIT(JMminus)) [µM] | Kd (KIT(DKIN)) [µM] | Structure (SMILES) |
| --- | --- | --- |
| < 0.1 |  | CC(C)(C)c1cc(NC(=O)Nc2ccc(NC(=O)c3cc(-c4ccc(O)cc4)cs3)cc2)no1 [Compound N77] |
| < 0.1 |  | CC(C)(C)c1cc(C(=O)Nc2ccc(NC(=O)Nc3cc(C(C)(C)C)on3)cc2)n(-c2ccccc2)n1 [Compound N78] |
| < 0.1 |  | CC(C)(C)c1cc(NC(=O)Nc2ccc(NC(=O)Cc3noc4ccccc34)cc2)no1 [Compound N80] |
| < 0.1 |  | CC(C)(C)c1cc(NC(=O)Nc2ccc(NC(=O)c3cccc[n+]3[O-])cc2)no1 [Compound N81] |
| < 0.1 |  | CC(C)(C)c1cc(NC(=O)Nc2ccc(NC(=O)c3nocc3C(C)(C)C)cc2)no1 [Compound N82] |
| < 0.1 | 0.1 to 1 | Cc1ccc(C(=O)Nc2ccc(NC(=O)Nc3cc(C(C)(C)C)on3)cc2)cc1 [Compound N92] |
| < 0.1 | < 0.1 | CC(C)(C)c1cc(NC(=O)Nc2ccc(NC(=O)c3cc4ccccc4cn3)cc2)no1 [Compound N106] |
| < 0.1 | < 0.1 | CC(C)(C)c1cc(NC(=O)Nc2ccc(NC(=O)c3ccc4ccncc4n3)cc2)no1 [Compound N110] |
| < 0.1 |  | CC(C)(C)c1cc(NC(=O)Nc2ccc(NC(=O)c3nccc4ccccc34)cc2)no1 [Compound N117] |
| < 0.1 | < 0.1 | Cc1cccc(C(=O)Nc2ccc(NC(=O)Nc3cc(C(C)(C)C)on3)cc2)n1 [Compound N121] |
| < 0.1 | 0.1 to 1 | CC(C)(C)c1cc(NC(=O)Nc2ccc(NC(=O)c3ccc4sccc4c3)cc2)no1 [Compound N122] |
| < 0.1 |  | COc1cc(OC)nc(C2CCCCC2C(=O)Nc2ccc(NC(=O)Nc3cc(C(C)(C)C)on3)cc2)n1 (centres unmarked) [Compound N129] |
| < 0.1 | 0.1 to 1 | Cc1ccc2sc(C(=O)Nc3ccc(NC(=O)Nc4cc(C(C)(C)C)on4)cc3)cc2c1 [Compound N133] |
| < 0.1 | < 0.1 | CC(C)(C)c1cc(NC(=O)Nc2ccc(NC(=O)c3ccc4ccccc4n3)cc2)no1 [Compound N143] |
| < 0.1 |  | CN(C)c1ccc(C(=O)Nc2ccc(NC(=O)Nc3cc(C(C)(C)C)on3)cc2)cn1 [Compound N159] |
| < 0.1 |  | Cc1cnc(C(=O)Nc2ccc(NC(=O)Nc3cc(C(C)(C)C)on3)cc2)c(C(=O)O)n1 [Compound N160] |
| < 0.1 |  | COc1cc(C(=O)Nc2ccc(NC(=O)Nc3cc(C(C)(C)C)on3)cc2)nc(OC)n1 [Compound N162] |
| < 0.1 |  | CCOC(=O)c1cccc(C(=O)Nc2ccc(NC(=O)Nc3cc(C(C)(C)C)on3)cc2)n1 [Compound N164] |
| < 0.1 |  | CC(C)(C)c1cc(NC(=O)Nc2ccc(NC(=O)c3cccnc3C(=O)O)cc2)no1 [Compound N165] |
| < 0.1 |  | CC(C)(C)c1cc(NC(=O)Nc2ccc(NC(=O)c3ccc(Oc4ccnc(C(=O)O)c4)cc3)cc2)no1 [Compound N166] |

| Kd (KIT(JMminus)) [µM] | Kd (KIT(DKIN)) [µM] | Structure (SMILES) |
| --- | --- | --- |
| < 0.1 |  | Cc1cc(NC(=O)c2cn3nc(Cl)ccc3n2)ccc1NC(=O)Nc1cc(C(C)(C)C)on1 [Compound N169] |
| < 0.1 |  | Cc1cc(NC(=O)[C@](C)(O)CSc2ccc(F)cc2)ccc1NC(=O)Nc1cc(C(C)(C)C)on1 [Compound N170] |
| < 0.1 |  | COc1cc(NC(=O)c2cn3nc(Cl)ccc3n2)ccc1NC(=O)Nc1cc(C(C)(C)C)on1 [Compound N171] |
| 0.1 to 1 |  | COc1cc(NC(=O)CCC(=O)N2CCNC(=O)CC2)ccc1NC(=O)Nc1cc(C(C)(C)C)on1 [Compound N172] |
| 1 to 10 |  | CC(C)(C)c1cc(NC(=O)Nc2ccc(NC(=O)c3cc(O)c4cccc(O)c4n3)cc2)no1 [Compound N176] |
| 0.1 to 1 |  | COc1ccc(C(=O)c2c[nH]c(C(=O)Nc3ccc(NC(=O)Nc4cc(C(C)(C)C)on4)cc3)c2)cc1 [Compound N177] |
| < 0.1 |  | Cc1ccc(-c2nc(C(=O)Nc3ccc(NC(=O)Nc4cc(C(C)(C)C)on4)cc3)cs2)cc1 [Compound N178] |
| < 0.1 |  | CC(C)(C)c1cc(NC(=O)Nc2ccc(NC(=O)c3nnsc3Sc3ccc(C(F)(F)F)cc3)cc2)no1 [Compound N179] |
| < 0.1 |  | CC(C)(C)c1cc(NC(=O)Nc2ccc(NC(=O)c3csc(Cc4cccc(C(F)(F)F)c4)n3)cc2)no1 [Compound N180] |
| < 0.1 |  | Cc1nc(-c2ccccc2)sc1C(=O)Nc1ccc(NC(=O)Nc2cc(C(C)(C)C)on2)cc1 [Compound N181] |
| 0.1 to 1 |  | CC(C)c1nnsc1C(=O)Nc1ccc(NC(=O)Nc2cc(C(C)(C)C)on2)cc1 [Compound N182] |
| < 0.1 |  | CC(C)(C)c1cc(NC(=O)Nc2ccc(NC(=O)c3sccc3OCc3cccc(C(F)(F)F)c3)cc2)no1 [Compound N183] |
| < 0.1 |  | Cc1nc(-c2ccc(Cl)cc2)sc1C(=O)Nc1ccc(NC(=O)Nc2cc(C(C)(C)C)on2)cc1 [Compound N184] |
| < 0.1 |  | CC(C)(C)c1cc(NC(=O)Nc2ccc(NC(=O)c3nn(-c4cccc(C(F)(F)F)c4)c(=O)cc3O)cc2)no1 [Compound N185] |
| < 0.1 |  | CC(C)(C)c1cc(NC(=O)Nc2ccc(Nc3nc(N)nc4[nH]cnc34)cc2)no1 [Compound O6] |
| < 0.1 |  | CC(C)(C)c1cc(NC(=O)Nc2ccc(Nc3cc(N)nc(N)n3)cc2)no1 [Compound O7] |
|  | 1 to 10 | O=C(Nc1ccccc1)Nc1ccc(-n2cnc(Cl)c2Cl)cc1 [Compound Z65] |
|  | 0.1 to 1 | COc1ccc(NC(=O)Nc2cc(C(F)(F)F)cc(Cl)n2)cc1 [Compound Z71] |
|  | 0.1 to 1 | O=C(Nc1ccc(Cl)cc1)Nc1cc(C(F)(F)F)cc(Cl)n1 [Compound Z76] |

Continued, compound first:

| Structure (SMILES) | Kd (KIT(JMminus)) [µM] | Kd (KIT(DKIN)) [µM] |
| --- | --- | --- |
| CC(C)(C)c1cc(NC(=O)Nc2ccc([N+](=O)[O-])cc2)no1 [Compound A21] | < 0.1 |  |
| COc1ccc(NC(=O)Nc2cc(C(C)(C)C)on2)cc1OC [Compound A55] | 1 to 10 |  |
| CC(C)(C)c1cc(NC(=O)Nc2ccc3c(c2)OCO3)no1 [Compound A56] | 0.1 to 1 |  |
| CC(C)(C)c1cc(NC(=O)Nc2ccc(OCCCc3ccncc3)cc2)no1 [Compound G1, 1-(4-(3-(pyridin-4-yl)propoxy)phenyl)-3-(5-tert-butylisoxazol-3-yl)urea] | < 0.1 | < 0.1 |
| CC(C)(C)c1cc(NC(=O)Nc2ccc(NC(=O)c3cccc(Cl)n3)cc2)no1 [Compound N4] | < 0.1 | < 0.1 |
| CC(C)(C)c1cc(NC(=O)Nc2ccc(NC(=O)c3cccc(F)n3)cc2)no1 [Compound N8] | < 0.1 | < 0.1 |
| CC(C)(C)c1cc(NC(=O)Nc2ccc(NC(=O)c3cn4nc(Cl)ccc4n3)cc2)no1 [Compound N9] | < 0.1 | < 0.1 |
| CC(C)(C)c1cc(NC(=O)Nc2ccc(NC(=O)c3ccc4ccccc4c3)cc2)no1 [Compound N28] | < 0.1 | < 0.1 |
| CC(C)(C)c1cc(NC(=O)Nc2ccc(NC(=O)/C=C/c3ccccc3Cl)cc2)no1 [Compound N40] | < 0.1 | 0.1 to 1 |
| Cc1cccnc1C(=O)Nc1ccc(NC(=O)Nc2cc(C(C)(C)C)on2)cc1 [Compound N41] | < 0.1 | < 0.1 |
| CC(=O)c1c[nH]c(C(=O)Cc2ccc(NC(=O)Nc3cc(C(C)(C)C)on3)cc2)c1 [Compound N43] | < 0.1 |  |
| COc1cc(OC)nc(Sc2ccccc2C(=O)Nc2ccc(NC(=O)Nc3cc(C(C)(C)C)on3)cc2)n1 [Compound N47] | < 0.1 |  |
| COc1cc(OC)nc(Nc2cccc(C(=O)Nc3ccc(NC(=O)Nc4cc(C(C)(C)C)on4)cc3)c2)n1 [Compound N49] | < 0.1 |  |
| COc1ccnc(Nc2ccc(C(=O)Nc3ccc(NC(=O)Nc4cc(C(C)(C)C)on4)cc3)cc2)n1 [Compound N51] | < 0.1 |  |
| COc1cc(OC)nc(N(C)c2cccc(C(=O)Nc3ccc(NC(=O)Nc4ccon4)cc3)c2)n1 [Compound N53] | < 0.1 |  |
| CC(C)(C)c1cc(NC(=O)Nc2ccc(NC(=O)c3cc(N4CCOCC4)nc(N4CCOCC4)c3)cc2)no1 [Compound N54] | < 0.1 |  |
| COc1cc(OC)nc(Oc2cccnc2C(=O)Nc2ccc(NC(=O)Nc3cc(C(C)(C)C)on3)cc2)n1 [Compound N56] | 0.1 to 1 |  |

| Structure (SMILES) | Kd (KIT(JMminus)) [µM] | Kd (KIT(DKIN)) [µM] |
| --- | --- | --- |
| CC(C)(C)c1cc(NC(=O)Nc2ccc(NC(=O)c3cscn3)cc2)no1 [Compound N57] | < 0.1 |  |
| CC(C)(C)c1cc(NC(=O)Nc2ccc(NC(=O)c3cc4cc(F)cc(S(C)(=O)=O)c4[nH]3)cc2)no1 [Compound N58] | 0.1 to 1 |  |
| CC(C)c1cc(NC(=O)Nc2ccc(NC(=O)C3CCN(c4ncc(C(F)(F)F)cc4Cl)CC3)cc2)no1 [Compound N59] | 0.1 to 1 |  |
| CC(C)(C)c1cc(NC(=O)Nc2ccc(NC(=O)c3cc4cccc5c4n(c3=O)CC5)cc2)no1 [Compound N60] | < 0.1 |  |
| CC(C)(C)c1cc(NC(=O)Nc2ccc(NC(=O)c3cc4cccnc4nc3C(F)(F)F)cc2)no1 [Compound N61] | 0.1 to 1 |  |
| CC(C)(C)c1cc(NC(=O)Nc2ccc(NC(=O)C3=Cc4cc(F)cc(S(C)(=O)=O)c4C3)cc2)no1 [Compound N62] | < 0.1 |  |
| Cn1nc(C(F)(F)F)c2cc(C(=O)Nc3ccc(NC(=O)Nc4cc(C(C)(C)C)on4)cc3)sc21 [Compound N64] | 0.1 to 1 |  |
| CC(=O)c1ccc(N2CCC(C(=O)Nc3ccc(NC(=O)Nc4cc(C(C)(C)C)on4)cc3)CC2)cc1 [Compound N65] | < 0.1 |  |
| CC(C)(C)c1cc(NC(=O)Nc2ccc(NC(=O)Cc3sc(-c4ccc(Cl)cc4)nc3-c3ccccc3)cc2)no1 [Compound N66] | < 0.1 |  |
| CC(C)(C)c1cc(NC(=O)Nc2ccc(NC(=O)c3cc(Br)cn(Cc4ccccc4)c3=O)cc2)no1 [Compound N67] | < 0.1 |  |
| Cn1nc(C(F)(F)F)c(C(=O)Nc2ccc(NC(=O)Nc3cc(C(C)(C)C)on3)cc2)c1Cl [Compound N68] | < 0.1 |  |
| CC(C)(C)c1cc(NC(=O)Nc2ccc(NC(=O)c3ccccc3O)cc2)no1 [Compound N69] | 1 to 10 |  |
| COc1cc(OC)nc(Oc2ccccc2C(=O)Nc2ccc(NC(=O)Nc3cc(C(C)(C)C)on3)cc2)n1 [Compound N70] | 0.1 to 1 |  |
| CC(C)(C)c1cc(NC(=O)Nc2ccc(NC(=O)c3nnsc3Cc3ccc(Cl)cc3)cc2)no1 [Compound N71] | 0.1 to 1 |  |
| CC(C)(C)c1cc(NC(=O)Nc2ccc(NC(=O)CNCC(=O)Nc3ccccc3)cc2)no1 [Compound N72] | < 0.1 |  |
| CC(C)(C)c1cc(NC(=O)Nc2ccc(NC(=O)c3cn4c(n3)sc3ccccc34)cc2)no1 [Compound N73] | < 0.1 |  |
